Assays:
[1] = target: CDK7/CyclinH/Mat1 (Homo sapiens, UniProt P50613); test: ADP Glo kinase assay, CDK7/CyclinH/Mat1; type: biochemical; conditions: for Ki: Km ATP, read-out: Enzymatic inhibition, Ki, CDK7 H; for remaining activity at 1 µM: compound at 1 μM, read-out: Residual enzymatic activity (%) at 1 μM, CDK7 H
Summary of the method: (§1)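 ADP Glo reagent terminates each kinase reaction after an optimised incubation at room temperature. Compounds are tested at ten concentrations spanning 10 to 0.0005 μM, diluted 1:3, with 0.5% DMSO.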

[2] = target: CDK1/CyclinB (Homo sapiens, UniProt P06493); test: ADP Glo kinase assay, CDK1/CyclinB; type: biochemical; conditions: for Ki: Km ATP, read-out: Enzymatic inhibition, Ki, CDK1 B; for remaining activity at 1 µM: compound at 1 μM, read-out: Residual enzymatic activity (%) at 1 μM, CDK1 B
Summary of the method: as §1

[3] = target: CDK6/CyclinD3 (Homo sapiens, UniProt Q00534); test: ADP Glo kinase assay, CDK6/CyclinD3; type: biochemical; conditions: for Ki: Km ATP, read-out: Enzymatic inhibition, Ki, CDK6 D3; for remaining activity at 1 µM: compound at 1 μM, read-out: Residual enzymatic activity (%) at 1 μM, CDK6 D3
Summary of the method: as §1

[4] = target: CDK4/CyclinD1 (Homo sapiens, UniProt P11802); test: ADP Glo kinase assay, CDK4/CyclinD1; type: biochemical; conditions: for Ki: Km ATP, read-out: Enzymatic inhibition, Ki, CDK4 D1; for remaining activity at 1 µM: compound at 1 μM, read-out: Residual enzymatic activity (%) at 1 μM, CDK4 D1
Procedure: Test compounds are used in 1:3 serial dilutions for 10 concentrations (from 10-0.0005 μM) in 0.5% DMSO. […] The kinase reactions are run for optimised time period at room temperature and then the reaction is stopped by adding 5 μL of ADP Glo reagent.

[5] = tested on: MV-4-11; test: Proliferation assay (resazurin, leukemia cell lines), MV-4-11; type: cell-based; conditions: Homo sapiens, MV4-11, read-out: 72 h Growth inhibition GI50, MV-4-11 cells
Source text: The following compounds were used as comparators.

[6] = target: T1, FLT3-ITD (Homo sapiens, UniProt P36888); test: ADP Glo kinase assay, FLT3-ITD; type: biochemical; conditions: for Ki: Km ATP 100 μM, read-out: Enzymatic inhibition, Ki, FLT3-ITD
T1 sequence (P36888 1-993): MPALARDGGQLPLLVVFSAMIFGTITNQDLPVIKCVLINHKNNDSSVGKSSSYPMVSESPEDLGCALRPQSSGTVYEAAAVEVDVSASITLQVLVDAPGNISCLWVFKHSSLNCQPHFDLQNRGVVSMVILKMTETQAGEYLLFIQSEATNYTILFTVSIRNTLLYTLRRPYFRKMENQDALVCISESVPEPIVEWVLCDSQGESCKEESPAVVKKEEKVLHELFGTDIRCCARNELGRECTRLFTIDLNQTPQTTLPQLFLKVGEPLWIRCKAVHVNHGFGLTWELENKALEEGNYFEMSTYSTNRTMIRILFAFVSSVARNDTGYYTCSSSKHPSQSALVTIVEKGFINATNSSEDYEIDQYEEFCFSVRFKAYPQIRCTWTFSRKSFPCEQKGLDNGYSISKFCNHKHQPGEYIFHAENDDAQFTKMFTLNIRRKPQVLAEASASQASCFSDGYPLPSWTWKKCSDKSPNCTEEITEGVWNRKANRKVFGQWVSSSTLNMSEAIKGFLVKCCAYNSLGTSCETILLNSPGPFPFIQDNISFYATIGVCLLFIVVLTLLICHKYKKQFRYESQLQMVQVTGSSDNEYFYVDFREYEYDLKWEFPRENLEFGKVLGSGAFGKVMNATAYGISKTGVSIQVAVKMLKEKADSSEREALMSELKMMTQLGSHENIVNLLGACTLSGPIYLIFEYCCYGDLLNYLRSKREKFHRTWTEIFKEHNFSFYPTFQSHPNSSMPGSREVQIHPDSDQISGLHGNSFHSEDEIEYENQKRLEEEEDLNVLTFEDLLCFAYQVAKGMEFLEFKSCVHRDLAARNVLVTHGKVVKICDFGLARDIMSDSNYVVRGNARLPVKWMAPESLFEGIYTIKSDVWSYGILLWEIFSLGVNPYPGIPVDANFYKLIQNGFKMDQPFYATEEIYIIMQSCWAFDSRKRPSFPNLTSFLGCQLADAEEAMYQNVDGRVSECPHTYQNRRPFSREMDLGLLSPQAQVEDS
Summary of the method: as §1

[7] = target: CDK2/CyclinA2 (Homo sapiens, UniProt P24941); test: ADP Glo kinase assay, CDK2/CyclinA2; type: biochemical; conditions: for Ki: Km ATP, read-out: Enzymatic inhibition, Ki, CDK2 A; for remaining activity at 1 µM: compound at 1 μM, read-out: Residual enzymatic activity (%) at 1 μM, CDK2 A
Summary of the method: as §1

[8] = target: CDK9/CyclinT1 (Homo sapiens, UniProt P50750); test: ADP Glo kinase assay, CDK9/CyclinT1; type: biochemical; conditions: CDK9/CyclinT1; Km ATP; read-out: Enzymatic inhibition, Ki, CDK9 T1
Summary of the method: as §1

Chain of CDK4/CyclinD1 (P11802 whole entry, species assumed): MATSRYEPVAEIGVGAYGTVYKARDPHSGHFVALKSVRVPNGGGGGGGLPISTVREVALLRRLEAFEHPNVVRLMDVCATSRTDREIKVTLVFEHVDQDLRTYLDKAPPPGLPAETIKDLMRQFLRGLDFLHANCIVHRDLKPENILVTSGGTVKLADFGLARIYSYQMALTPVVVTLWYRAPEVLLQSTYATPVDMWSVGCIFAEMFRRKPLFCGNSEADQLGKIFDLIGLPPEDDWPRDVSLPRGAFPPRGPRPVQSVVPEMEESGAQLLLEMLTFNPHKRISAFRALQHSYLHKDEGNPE
Chain of CDK4/CyclinD1 (P24385 whole entry partner, species assumed): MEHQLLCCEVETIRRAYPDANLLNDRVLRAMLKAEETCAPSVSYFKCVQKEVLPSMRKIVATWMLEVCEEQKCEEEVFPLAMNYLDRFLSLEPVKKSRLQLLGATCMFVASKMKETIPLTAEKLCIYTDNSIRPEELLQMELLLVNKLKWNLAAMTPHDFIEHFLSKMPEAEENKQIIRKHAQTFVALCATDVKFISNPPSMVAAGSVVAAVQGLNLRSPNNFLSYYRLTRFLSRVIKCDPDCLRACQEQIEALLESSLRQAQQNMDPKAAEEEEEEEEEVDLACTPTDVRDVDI
Chain of CDK9/CyclinT1 (P50750 whole entry, species assumed): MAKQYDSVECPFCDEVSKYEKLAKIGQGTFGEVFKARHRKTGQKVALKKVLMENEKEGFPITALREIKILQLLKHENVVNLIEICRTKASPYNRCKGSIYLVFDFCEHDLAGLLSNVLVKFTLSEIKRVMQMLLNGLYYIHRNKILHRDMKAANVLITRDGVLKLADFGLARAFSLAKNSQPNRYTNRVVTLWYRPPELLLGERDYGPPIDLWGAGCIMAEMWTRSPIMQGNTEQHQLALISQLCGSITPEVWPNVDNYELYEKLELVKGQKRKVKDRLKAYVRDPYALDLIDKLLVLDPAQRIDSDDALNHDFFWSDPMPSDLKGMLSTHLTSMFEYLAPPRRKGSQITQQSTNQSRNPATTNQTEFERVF
Chain of CDK9/CyclinT1 (O60563 whole entry partner, species assumed): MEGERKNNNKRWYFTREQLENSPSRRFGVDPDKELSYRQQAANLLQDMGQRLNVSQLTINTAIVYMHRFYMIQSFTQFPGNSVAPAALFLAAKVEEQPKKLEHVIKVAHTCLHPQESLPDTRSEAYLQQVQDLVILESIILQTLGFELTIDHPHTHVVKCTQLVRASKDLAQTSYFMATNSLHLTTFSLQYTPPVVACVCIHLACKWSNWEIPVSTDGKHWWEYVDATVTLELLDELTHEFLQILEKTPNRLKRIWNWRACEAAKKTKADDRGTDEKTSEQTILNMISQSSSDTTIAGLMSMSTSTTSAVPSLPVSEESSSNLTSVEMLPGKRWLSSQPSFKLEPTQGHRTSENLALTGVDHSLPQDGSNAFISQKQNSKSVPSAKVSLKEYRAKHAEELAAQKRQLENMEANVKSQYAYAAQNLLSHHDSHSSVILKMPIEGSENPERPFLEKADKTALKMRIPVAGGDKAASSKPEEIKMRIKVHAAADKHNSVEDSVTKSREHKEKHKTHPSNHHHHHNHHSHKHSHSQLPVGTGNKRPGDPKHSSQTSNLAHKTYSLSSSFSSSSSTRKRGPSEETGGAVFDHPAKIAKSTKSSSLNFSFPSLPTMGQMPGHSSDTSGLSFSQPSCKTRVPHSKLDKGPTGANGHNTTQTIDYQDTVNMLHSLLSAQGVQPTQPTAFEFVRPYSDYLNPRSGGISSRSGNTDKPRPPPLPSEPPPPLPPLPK
Chain of CDK7/CyclinH/Mat1 (P50613 whole entry, species assumed): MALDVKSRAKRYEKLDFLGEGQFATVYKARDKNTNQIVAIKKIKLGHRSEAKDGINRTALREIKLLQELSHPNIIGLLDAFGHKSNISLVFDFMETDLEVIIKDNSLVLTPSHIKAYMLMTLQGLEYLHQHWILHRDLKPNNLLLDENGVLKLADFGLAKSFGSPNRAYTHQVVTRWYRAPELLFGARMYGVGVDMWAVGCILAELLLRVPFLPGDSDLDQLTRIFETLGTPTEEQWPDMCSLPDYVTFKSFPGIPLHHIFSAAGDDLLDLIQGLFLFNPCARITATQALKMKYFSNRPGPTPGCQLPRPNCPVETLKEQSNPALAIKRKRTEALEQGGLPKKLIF
Chain of CDK7/CyclinH/Mat1 (P51946 whole entry partner, species assumed): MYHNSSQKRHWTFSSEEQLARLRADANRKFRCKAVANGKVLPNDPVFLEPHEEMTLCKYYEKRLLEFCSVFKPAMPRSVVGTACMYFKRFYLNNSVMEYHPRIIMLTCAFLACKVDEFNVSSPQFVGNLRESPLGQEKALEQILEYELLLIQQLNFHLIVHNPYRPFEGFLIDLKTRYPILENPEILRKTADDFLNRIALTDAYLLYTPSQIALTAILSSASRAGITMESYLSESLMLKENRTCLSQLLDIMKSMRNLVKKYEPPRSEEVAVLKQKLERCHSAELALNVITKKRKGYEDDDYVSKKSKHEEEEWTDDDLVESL
Chain of CDK7/CyclinH/Mat1 (P51948 whole entry partner, species assumed): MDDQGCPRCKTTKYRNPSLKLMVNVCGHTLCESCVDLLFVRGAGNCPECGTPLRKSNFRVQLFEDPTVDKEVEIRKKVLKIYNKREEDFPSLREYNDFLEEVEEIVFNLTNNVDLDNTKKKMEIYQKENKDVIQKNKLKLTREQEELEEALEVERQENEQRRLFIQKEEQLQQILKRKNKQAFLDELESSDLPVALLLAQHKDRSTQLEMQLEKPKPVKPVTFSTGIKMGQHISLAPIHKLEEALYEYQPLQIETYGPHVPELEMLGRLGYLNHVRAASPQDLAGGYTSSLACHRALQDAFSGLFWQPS
Chain of CDK6/CyclinD3 (Q00534 whole entry, species assumed): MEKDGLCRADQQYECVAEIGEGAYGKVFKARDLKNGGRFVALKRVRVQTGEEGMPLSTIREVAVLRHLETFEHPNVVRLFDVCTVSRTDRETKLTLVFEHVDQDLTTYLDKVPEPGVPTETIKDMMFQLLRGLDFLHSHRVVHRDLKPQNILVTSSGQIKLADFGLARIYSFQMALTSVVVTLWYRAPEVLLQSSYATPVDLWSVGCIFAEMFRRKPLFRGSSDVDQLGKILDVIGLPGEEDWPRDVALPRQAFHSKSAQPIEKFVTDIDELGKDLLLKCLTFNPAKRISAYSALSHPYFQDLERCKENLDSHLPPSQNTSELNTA
Chain of CDK6/CyclinD3 (P30281 whole entry partner, species assumed): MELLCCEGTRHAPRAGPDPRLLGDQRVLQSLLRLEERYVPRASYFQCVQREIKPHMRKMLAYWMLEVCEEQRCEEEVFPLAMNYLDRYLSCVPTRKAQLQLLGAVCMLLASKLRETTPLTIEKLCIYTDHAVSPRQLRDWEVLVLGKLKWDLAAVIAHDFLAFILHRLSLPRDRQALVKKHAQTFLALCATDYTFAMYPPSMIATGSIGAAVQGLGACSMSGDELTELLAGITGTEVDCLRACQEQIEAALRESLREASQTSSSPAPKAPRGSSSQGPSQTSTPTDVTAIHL
Chain of CDK1/CyclinB (P06493 whole entry, species assumed): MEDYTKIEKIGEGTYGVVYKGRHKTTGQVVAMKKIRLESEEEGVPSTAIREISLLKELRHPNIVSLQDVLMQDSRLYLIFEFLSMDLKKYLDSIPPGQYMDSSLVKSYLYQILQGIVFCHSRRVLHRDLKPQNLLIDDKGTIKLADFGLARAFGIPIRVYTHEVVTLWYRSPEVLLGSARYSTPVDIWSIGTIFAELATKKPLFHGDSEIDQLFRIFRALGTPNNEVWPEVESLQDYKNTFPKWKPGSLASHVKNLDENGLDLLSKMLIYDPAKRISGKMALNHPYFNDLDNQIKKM
Chain of CDK1/CyclinB (P14635 whole entry partner, species assumed): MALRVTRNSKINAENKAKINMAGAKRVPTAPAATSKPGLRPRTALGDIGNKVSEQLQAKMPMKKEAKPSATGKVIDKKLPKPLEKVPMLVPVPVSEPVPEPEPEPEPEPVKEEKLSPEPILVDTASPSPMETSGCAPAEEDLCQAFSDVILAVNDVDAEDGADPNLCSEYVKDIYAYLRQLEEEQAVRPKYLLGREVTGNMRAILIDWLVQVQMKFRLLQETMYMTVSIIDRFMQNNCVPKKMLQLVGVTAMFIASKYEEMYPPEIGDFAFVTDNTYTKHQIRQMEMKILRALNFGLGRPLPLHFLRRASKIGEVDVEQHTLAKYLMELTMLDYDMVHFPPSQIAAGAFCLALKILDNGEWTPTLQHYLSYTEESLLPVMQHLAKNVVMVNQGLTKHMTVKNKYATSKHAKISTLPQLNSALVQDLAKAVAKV

| Structure (SMILES) | Ki [1] [nM] | Ki [2] [nM] | Ki [3] [nM] | Ki [4] [nM] | GI50 [5] [nM] | Ki [6] [nM] | Ki [7] [nM] | Ki [8] [nM] | remaining activity at 1 µM [2] [%] | remaining activity at 1 µM [3] [%] | remaining activity at 1 µM [4] [%] | remaining activity at 1 µM [7] [%] | remaining activity at 1 µM [1] [%] | Residual enzymatic activity (%) at 1 μM, FLT3-ITD ([6]; compound at 1 μM) [%] |
| --- | --- | --- | --- | --- | --- | --- | --- | --- | --- | --- | --- | --- | --- | --- |
| Brc1ccc2ncc(-c3ccnc(Nc4ccc(N5CCCC5)nc4)n3)n2c1 [Compound 26, 4-(6-Bromoimidazo[1,2-a]pyridin-3-yl)-N-(6-(pyrrolidin-1-yl)pyridin-3-yl)pyrimidin-2-amine] | > 5000 | – | – | – | 37 | 91 | – | 261 | 60 | 53 | 92 | 27 | – | – |
| COC(=O)N1CCC(c2ccc(Nc3ncc(F)c(-c4cnc5ccc(-c6ccccc6)cn45)n3)cn2)CC1 [Compound 29, Methyl 4-(5-((5-fluoro-4-(6-phenylimidazo[1,2-a]pyridin-3-yl)pyrimidin-2-yl)amino)pyridin-2-yl)piperidine-1-carboxylate] | > 5000 | – | – | – | 337 | 257 | – | > 5000 | 69 | 61 | 98 | 25 | – | – |
| Fc1cnc(Nc2ccc(N3CCN(CCN4CCOCC4)CC3)nc2)nc1-c1cnc2ccc(-c3ccccc3)cn12 [Compound 30, 5-Fluoro-N-(6-(4-(2-morpholinoethyl)piperazin-1-yl)pyridin-3-yl)-4-(6-phenylimidazo[1,2-a]pyridin-3-yl)pyrimidin-2-amine] | 223 | – | – | – | 56 | 148 | 520 | 75 | 52 | 23 | 65 | – | – | – |
| CCOc1ccc(Nc2ncc(F)c(-c3cnc4ccc(-c5ccccc5)cn34)n2)cn1 [Compound 31, N-(6-Ethoxypyridin-3-yl)-5-fluoro-4-(6-phenylimidazo[1,2-a]pyridin-3-yl)pyrimidin-2-amine] | – | – | – | – | 600 | – | – | > 1000 | 97 | 41 | 95 | 55 | 100 | 70 |
| O=C(c1ccc(Nc2ncc(F)c(-c3cnc4ccc(-c5ccccc5)cn34)n2)cn1)N1CCCCC1 [Compound 32, (5-((5-Fluoro-4-(6-phenylimidazo[1,2-a]pyridin-3-yl)pyrimidin-2-yl)amino)pyridin-2-yl) (piperidin-1-yl)methanone] | – | – | – | – | 620 | > 1000 | – | > 1000 | 96 | 44 | 91 | 89 | 100 | – |
| O=C(NC1CC1)c1ccc(Nc2ncc(F)c(-c3cnc4ccc(-c5ccccc5)cn34)n2)cn1 [Compound 33, N-Cyclopropyl-5-((5-fluoro-4-(6-phenylimidazo[1,2-a]pyridin-3-yl)pyrimidin-2-yl)amino) picolinamide] | – | – | – | – | 296 | > 1000 | – | > 500 | 59 | 46 | 96 | 83 | 100 | – |
| Fc1cnc(Nc2ccc(Cl)nc2)nc1-c1cnc2ccc(-c3ccccc3)cn12 [Compound 34, N-(6-Chloropyridin-3-yl)-5-fluoro-4-(6-phenylimidazo[1,2-a]pyridin-3-yl)pyrimidin-2-amine] | – | – | – | – | 920 | > 1000 | – | 330 | 100 | 47 | 92 | 86 | 92 | – |

Continued, values first:

| Ki [1] [nM] | Ki [2] [nM] | Ki [3] [nM] | Ki [4] [nM] | GI50 [5] [nM] | Ki [6] [nM] | Ki [7] [nM] | Ki [8] [nM] | remaining activity at 1 µM [2] [%] | remaining activity at 1 µM [3] [%] | remaining activity at 1 µM [4] [%] | remaining activity at 1 µM [7] [%] | remaining activity at 1 µM [1] [%] | Residual enzymatic activity (%) at 1 μM, FLT3-ITD ([6]; compound at 1 μM) [%] | Structure (SMILES) |
| --- | --- | --- | --- | --- | --- | --- | --- | --- | --- | --- | --- | --- | --- | --- |
| 770 | 199 | 243 | 94 | 6 | 5 | 38 | 10 | – | – | – | – | – | – | CN1CCN(c2ccc(Nc3nccc(-c4cnc5ccc(Cl)cn45)n3)cn2)CC1 [Compound 22, 4-(6-Chloroimidazo[1,2-a]pyridin-3-yl)-N-(6-(4-methylpiperazin-1-yl)pyridin-3-yl) pyrimidin-2-amine] |
| 297 | – | – | – | 740 | 5 | 1080 | 96 | 100 | 44 | 94 | – | – | – | c1ccc(-c2ccc3ncc(-c4ccnc(Nc5ccc(N6CCC6)nc5)n4)n3c2)cc1 [Compound 25, N-(6-(Azetidin-1-yl)pyridin-3-yl)-4-(6-phenylimidazo[1,2-a]pyridin-3-yl)pyrimidin-2-amine] |
| > 5000 | – | – | – | 196 | 109 | – | > 5000 | 84 | 61 | 97 | 37 | – | – | c1ccc(-c2ccc3ncc(-c4ccnc(Nc5ccc(N6CCCC6)nc5)n4)n3c2)cc1 [Compound 27, 4-(6-Phenylimidazo[1,2-a]pyridin-3-yl)-N-(6-(pyrrolidin-1-yl)pyridin-3-yl)pyrimidin-2-amine] |
| 314 | – | – | – | 233 | 65 | 1120 | 86 | 61 | 45 | 76 | – | – | – | CN1CCN(c2ccc(Nc3ncc(F)c(-c4cnc5ccc(-c6ccccc6)cn45)n3)cn2)CC1 [Compound 28, 5-Fluoro-N-(6-(4-methylpiperazin-1-yl)pyridin-3-yl)-4-(6-phenylimidazo[1,2-a]pyridin-3-yl)pyrimidin-2-amine] |
| – | 198 | – | 530 | 18 | 10 | 131 | 34 | – | 34 | – | – | 31 | – | CN1CCN(c2ccc(Nc3nccc(-c4cnc5ccc(C(F)(F)F)cn45)n3)cn2)CC1 [Compound 36, N-(6-(4-Methylpiperazin-1-yl)pyridin-3-yl)-4-(6-(trifluoromethyl)imidazo[1,2-a]pyridin-3-yl)pyrimidin-2-amine] |
| 174 | 151 | 215 | 154 | 24 | 26 | 72 | 14 | – | – | – | – | – | – | CC(C)N1CCN(c2ccc(Nc3nccc(-c4cnc5ccc(Cl)cn45)n3)cn2)CC1 [Compound 37, 4-(6-Chloroimidazo[1,2-a]pyridin-3-yl)-N-(6-(4-isopropylpiperazin-1-yl)pyridin-3-yl)pyrimidin-2-amine] |
| 149 | – | – | – | 88 | 12 | 563 | 9 | 46 | 41 | 55 | – | – | – | CC(C)N1CCN(c2ccc(Nc3nccc(-c4cnc5ccc(-c6ccccc6)cn45)n3)cn2)CC1 [Compound 39, N-(6-(4-Isopropylpiperazin-1-yl)pyridin-3-yl)-4-(6-phenylimidazo[1,2-a]pyridin-3-yl)pyrimidin-2-amine] |
